In patent US20040235071A1, “Methods and compositions for treating cancer using 15986, 2188, 20743, 9148, 9151, 9791, 44252, 14184, 42461, 8204, 7970, 25552, 21657, 26492, 2411, 15088, 1905, 28899, 63380, 33935, 10480, 12686, 25501, 17694, 15701, 53062, 49908, 21612, 38949, 6216, 46863, 9235, 2201, 6985, 9883, 12238, 18057, …” (Millennium Pharmaceuticals, Inc., priority 2002, published 2004):

Key:
Type in all cases: cell-based, human
[1] = test system: 15701 mRNA; assay: TaqMan PI3-kinase panel, 15701 mRNA expression; details: 48 hours
Source text: In an expanded breast cancer tissue panel, 15701 mRNA was expressed at increased levels (2-131 fold) in 14/15 primary breast tumor samples when compared to 4/4 normal breast tissue samples. In a breast cancer cell model panel, 15701 mRNA was expressed at a 4-fold increased level in transformed, activated H-ras-expressing MCF10AT01 cells vs. normal MCF10A cells, and at a 5-fold increased level in transformed, activated H-ras-expressing MCF10AT3B cells when compared to normal MCF10A cells. 15701 mRNA was expressed in many breast tumor cell lines, including MCF-7, T47D, ZR-75 and MDA-MB-468. In the PI3-kinase panel, 15701 mRNA expression was decreased in MDA-MB-468, MCF-7 and LNCaP cells after 48 hours treatment with the PI3-kinase inhibitor LY294002. 15701 mRNA expression in MDA-MB-468 cells decreased 7-fold after 48 hours with LY294002 (115 uM). […]
This example describes the TaqMan™ procedure. The Taqman™ procedure is a quantitative, reverse transcription PCR-based approach for detecting mRNA. […]
(§1) During the PCR reaction, cleavage of the probe separates the reporter dye and the quencher dye, resulting in increased fluorescence of the reporter. Accumulation of PCR products is detected directly by monitoring the increase in fluorescence of the reporter dye. When the probe is intact, the proximity of the reporter dye to the quencher dye results in suppression of the reporter fluorescence. […]

[2] = test system: 39228 mRNA; assay: TaqMan analysis of the Cox inhibitor study, 39228 mRNA expression in HUVEC; details: 40-100 mM, 10 h, relative to a vehicle (DMSO) control
Source text: (§2) This example describes the TaqMan™ procedure. The Taqman™ procedure is a quantitative, reverse transcription PCR-based approach for detecting mRNA. The RT-PCR reaction exploits the 5′ nuclease activity of AmpliTaq Gold™ DNA Polymerase to cleave a TaqMan™ probe during PCR. Briefly, cDNA was generated from the samples of interest, e.g., heart, kidney, liver, skeletal muscle, and various vessels, and used as the starting material for PCR amplification. In addition to the 5′ and 3′ gene-specific primers, a gene-specific oligonucleotide probe (complementary to the region being amplified) was included in the reaction (i.e., the Taqman™ probe). […]
as §1

[3] = test system: 20743 mRNA; assay: Breast cancer cell model panel, 20743 mRNA expression in MCF10A cells
Experimental: On a breast cancer cell model panel, 20743 mRNA expression in MCF10A cells was increased 4-fold by 8 hrs treatment of 10 ng/ml EGF and was increased 3-fold by 3 hrs treatment with 10 nM IGF1.
as §2, §1

[4] = test system: 2201; assay: Breast cancer cell model panel, 2201 in MCF10A cells; details: 8 hour treatment, 10 ng/ml
Experimental: In a breast cancer cell model panel, 2201 is increased 3-fold after an 8 hour treatment of MCF10A cells with 10 ng/ml EGF.
as §2, §1

O=c1cc(N2CCOCC2)oc2c(-c3ccccc3)cccc12 [LY294002]
15701 mRNA expression decrease ([1]; MCF-7 cells, 30 uM): 16 fold | 15701 mRNA expression decrease ([1]; MDA-MB-468 cells, 115 uM): 7 fold

CS(=O)(=O)Nc1ccc([N+](=O)[O-])cc1OC1CCCCC1 [NS398]
39228 mRNA expression [2]: increased

CC1=C(CC(=O)O)c2cc(F)ccc2/C1=C\c1ccc([S+](C)[O-])cc1 (stereo not shown) [Sulindac]
39228 mRNA expression [2]: increased

EGF: epidermal growth factor (NSDSECPLSHDGYCLHDGVCMYIEALDKYACNCVVGYIGERCQYRDLKWWELR; UniProt P01133 971-1023, looked up)
20743 mRNA expression increase ([3]; 8 hrs treatment, 10 ng/ml): 4 fold | 2201 increase [4]: 3 fold

IGF1: growth factor used to treat MCF10A cells
20743 mRNA expression increase ([3]; 3 hrs treatment, 10 nM): 3 fold
